Test in all cases: growth of human tumour cells (NCI), 48 h
Assay [1] concerns SNB-19 CNS.
Assay [2] relates to UACC-62 melanoma.
The subject of assay [3] is NCI-H23 lung.
The subject of assay [4] is EKVX NSCLC.
Assay [5] has as its system COLO 205 colon.
Assay [6] concerns DU-145 prostate.
In assay [7] the test system is MOLT-4 leukemia.
Assay [8] concerns NCI/ADR-RES ovarian.
Assay [9] has as its system M14 melanoma.
In assay [10] the test system is NCI-H226 lung.

Here are results for eight molecules from PubChem BioAssay (NCI).

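Following 48 hours of exposure in 96-well plates, responses at five concentrations were used to interpolate endpoints linearly. GI50 is the concentration that inhibits growth by half. TGI marks complete inhibition of growth.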

For the molecule `CC1(C)N=C(N)N=C(N)N1c1ccc(OCC(=O)N2CCOCC2)c(Cl)c1`, the GI50 in assay [1] was 19.1 µM; in [2], 4.74 µM; in assay [3], 1.5 µM; in assay [4] it was 2.29 µM; in [5] it was 8.8 µM; in assay [6] it was 0.994 µM. Moreover, the GI50 in [7] is 6.31 µM; in assay [8] it was above 100 µM; in assay [9], 4.19 µM; in assay [10], 33.5 µM. The TGI in assay [1], in assay [2], in assay [3], in [4], in assay [5] and in assay [6] was above 100 µM in each case. For the same molecule, the TGI in assay [7], in assay [8], in assay [9] and in assay [10] was above 100 µM each time.

Regarding `COc1cc(OC)c2cc(C(=O)O)c(=O)oc2c1`, the GI50 in assay [1] is above 100 µM; in [2], above 71.8 µM; in [3], above 100 µM; in [4], above 100 µM; in [5] it was above 100 µM; in [6] it was above 100 µM. Moreover, the GI50 in assay [7], in [8], in [9] and in assay [10] was above 100 µM throughout. Also, the TGI in assay [1], in [2], in assay [3], in assay [4], in assay [5] and in assay [6] was above 100 µM in each case. The TGI in assay [7], in assay [8], in assay [9] and in [10] was above 100 µM in each case.

In the case of `COc1cc(C2CC(c3ccc(Nc4ccnc5cc(Cl)ccc45)cc3)=NN2C=O)cc(OC)c1OC` (stereo not given), the GI50 in [1] is 18.2 µM; in [2] it was 2.2 µM; in assay [3] it was 20.4 µM; in [4] it was 11.7 µM; in assay [5] it was 3.73 µM; in assay [6] it was 6.63 µM. The GI50 is 3.36 µM in [7], 7.88 µM in assay [8], 3.75 µM in [9] and 34.5 µM in assay [10]. Also, the TGI in [1] is above 100 µM; in assay [2] it was 6.87 µM; in assay [3] it was above 100 µM; in assay [4], above 100 µM; in assay [5], 70.4 µM; in assay [6] it was above 100 µM. The TGI is 9.21 µM in assay [7], above 100 µM in assay [8], 13.9 µM in assay [9] and above 100 µM in assay [10].

As for `COc1ccc(N(C)c2nc(Cl)nc3ccn(C)c23)cc1`, the GI50 in assay [1], in assay [2], in [3], in [4], in [5] and in assay [6] was below 0.01 µM throughout. The GI50 is below 0.01 µM in [7], below 0.01 µM in [8], below 0.01 µM in assay [9] and above 100 µM in [10]. Also, the TGI in assay [1] is above 100 µM; in [2], above 100 µM; in [3], above 100 µM; in assay [4] it was above 100 µM; in [5], below 0.01 µM; in [6], above 100 µM. Besides, the TGI in [7], in assay [8], in assay [9] and in assay [10] was above 100 µM throughout.

`Cn1c(=O)c2[nH]c(C3CC(=O)CC(c4nc5c([nH]4)c(=O)n(C)c(=O)n5C)N3)nc2n(C)c1=O` (stereo not given): the TGI in [1], in assay [2], in assay [3], in assay [4], in assay [5] and in [6] was above 100 µM each time. Besides, the TGI in [7], in assay [8], in assay [9] and in assay [10] was above 100 µM each time.

With `COc1cc(/C=C/C(=O)C(C(=O)/C=C/c2ccc(OC(=O)CCNc3nnc(C)s3)c(OC)c2)C(=O)CCNc2nnc(C)s2)ccc1OC(=O)CCNc1nnc(C)s1`, the GI50 was 4.79 µM in assay [1]; 1.73 µM in [2]; 3.19 µM in assay [3]; 3.8 µM in assay [4]; 2.57 µM in [5]; 2.27 µM in assay [6]. The GI50 in assay [7] is 1.64 µM; in assay [8], 3.87 µM; in assay [9] it was 3.11 µM; in [10] it was 2.64 µM. The TGI in [1] is 18.3 µM; in assay [2], 3.57 µM; in [3] it was 18.4 µM; in [4], 14.8 µM; in [5] it was 6.94 µM; in assay [6] it was 5.61 µM. For the same molecule, the TGI in [7] is 3.89 µM; in assay [8], above 38.8 µM; in assay [9] it was 11 µM; in assay [10] it was 8.12 µM.

On to `COc1ccc(Cn2cc3c(c2-c2ccc(O)cc2)CCc2cnoc2-3)cc1`, for which the GI50 in assay [1] is 0.586 µM; in assay [2] it was 0.54 µM; in assay [3], 0.461 µM; in assay [4], 0.438 µM; in assay [5], 0.577 µM; in assay [6], 0.365 µM. Further, the GI50 in [7] is 0.507 µM; in assay [8] it was 0.19 µM; in assay [9], 0.325 µM; in [10], 4.6 µM. The TGI in assay [1] worked out at 17.1 µM; in assay [2] it was 17.6 µM; in assay [3], 17.8 µM; in assay [4], 26.9 µM; in [5] it was 2.01 µM; in [6] it was 5.14 µM. Also, the TGI was 27.4 µM in [7], 0.946 µM in [8], 16.5 µM in assay [9] and 31.3 µM in assay [10].

Take `O=C(Nc1cccnc1)c1cccc([N+](=O)[O-])c1`: the GI50 in assay [1], in assay [2], in assay [3], in assay [4], in [5] and in [6] was above 100 µM in each case. The GI50 in assay [7], in [8], in [9] and in [10] was above 100 µM throughout. Also, the TGI in assay [1], in assay [2], in [3], in assay [4], in [5] and in assay [6] was above 100 µM each time. Besides, the TGI in [7], in assay [8], in assay [9] and in [10] was above 100 µM in each case.
